Molecules are shown by their SMILES. pIC50: −log10 of the molar value. Counter-ions that a name gives are not always drawn.

This passage reports IC50 results from patent publication US11332459B2 (TEIJIN PHARMA LIMITED, priority 2017, dated 2022).

In this assay the target is T1, human TRPC6 (Homo sapiens, UniProt Q9Y210).
T1 construct: expressed in transfected cells
T1 sequence (Q9Y210 1-931): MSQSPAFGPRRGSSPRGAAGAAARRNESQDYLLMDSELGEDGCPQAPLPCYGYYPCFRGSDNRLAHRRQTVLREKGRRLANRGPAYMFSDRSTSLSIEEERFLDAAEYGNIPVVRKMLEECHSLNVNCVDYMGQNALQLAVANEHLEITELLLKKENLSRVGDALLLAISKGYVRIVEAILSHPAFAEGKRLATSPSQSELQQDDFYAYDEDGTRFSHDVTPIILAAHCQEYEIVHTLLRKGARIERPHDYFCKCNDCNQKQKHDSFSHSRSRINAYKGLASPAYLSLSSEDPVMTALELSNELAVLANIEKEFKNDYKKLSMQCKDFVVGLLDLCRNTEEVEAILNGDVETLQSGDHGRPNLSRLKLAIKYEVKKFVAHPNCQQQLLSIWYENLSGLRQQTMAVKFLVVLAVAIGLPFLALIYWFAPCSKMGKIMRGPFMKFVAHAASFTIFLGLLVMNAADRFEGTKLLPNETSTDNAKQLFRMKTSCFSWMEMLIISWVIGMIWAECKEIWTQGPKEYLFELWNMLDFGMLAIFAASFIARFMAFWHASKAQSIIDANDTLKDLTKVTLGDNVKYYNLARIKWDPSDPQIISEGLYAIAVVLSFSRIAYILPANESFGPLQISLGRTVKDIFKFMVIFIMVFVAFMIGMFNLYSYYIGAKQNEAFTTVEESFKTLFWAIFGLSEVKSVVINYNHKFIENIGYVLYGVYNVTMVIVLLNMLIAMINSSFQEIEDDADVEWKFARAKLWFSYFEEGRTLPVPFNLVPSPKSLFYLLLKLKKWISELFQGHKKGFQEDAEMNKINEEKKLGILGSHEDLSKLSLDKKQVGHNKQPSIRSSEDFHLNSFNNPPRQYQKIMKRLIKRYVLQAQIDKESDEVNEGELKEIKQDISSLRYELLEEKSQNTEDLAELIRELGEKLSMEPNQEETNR
Nature of the assay: TRPC6 calcium flux assay (FLIPR, OAG-stimulated calcium influx). The note with it: HEK293 cells stably transfected with human TRPC6, read-out: hTRPC6 Potency. The class given is cell-based. The method, boiled down: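 HEK293 cells stably expressing human TRPC6, loaded with calcium dye 90–120 min at RT, then given compound for 25 min before OAG (50 uM final, 0.5% DMSO) in HEPES buffer pH 7.2 with 2 mM CaCl2. Background-subtracted FLIPR peak over 180 s normalized to OAG vs buffer; IC50 from dose plot.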
For orientation: Calcium flux is commonly read through the fluorescence of an indicator in the cells.

As for `N#Cc1ccc(Cn2c(N3CCC[C@]4(CCCCN4)C3)nc3ccccc32)nc1` [Example 129, 6-((2-((6R)-1,8-diazaspiro[5.5]undecan-8-yl)-1H-benzimidazol-1-yl)methyl)-3-pyridinecarbonitrile], the pIC50 is less than 5.43. Then `N#Cc1ccc(Cn2c(N3CCC[C@@]4(CCCCN4)C3)nc3ccccc32)nc1` [Example 130, 6-((2-((6S)-1,8-diazaspiro[5.5]undecan-8-yl)-1H-benzimidazol-1-yl)methyl)-3-pyridinecarbonitrile], with 6.57; and `N#Cc1ccc(Cn2c(N3CC[C@H]4OCCN[C@@H]4C3)nc3ccccc32)nc1` [Example 131, 6-((2-((4aR,8aR)-hexahydro-2H-pyrido[4,3-b][1,4]oxazin-6(5H)-yl)-1H-benzimidazol-1-yl)methyl)-3-pyridinecarbonitrile], with 7.08. Then `N#Cc1ccc(Cn2c(N3CC[C@@H]4OCCN[C@H]4C3)nc3ccccc32)nc1` [Example 132, 6-((2-((4aS,8aS)-hexahydro-2H-pyrido[4,3-b][1,4]oxazin-6(5H)-yl)-1H-benzimidazol-1-yl)methyl)-3-pyridinecarbonitrile], with 7.38. In the case of `NC(=O)c1cnc(Cn2c(N3CC[C@@H](F)[C@H](N)C3)nc3cc(F)c(F)cc32)cn1` [Example 133, 5-((2-((3R,4R)-3-amino-4-fluoro-1-piperidinyl)-5,6-difluoro-1H-benzimidazol-1-yl)methyl)-2-pyrazinecarboxamide], the pIC50 was 8.16. Then `NC(=O)c1cnc(Cn2c(N3CC[C@@H](F)[C@H](N)C3)nc3ccc(C(F)(F)F)cc32)cn1` [Example 134, 5-((2-((3R,4R)-3-amino-4-fluoro-1-piperidinyl)-6-(trifluoromethyl)-1H-benzimidazol-1-yl)methyl)-2-pyrazinecarboxamide], with 8.33. On to `N#Cc1ccc(Cn2c(N3CCC[C@]4(CCCN4)C3)nc3ccccc32)nc1` [Example 135, 6-((2-((5R)-1,7-diazaspiro[4.5]decan-7-yl)-1H-benzimidazol-1-yl)methyl)-3-pyridinecarbonitrile], for which the pIC50 is less than 5.43. With `N#Cc1ccc(Cn2c(N3CCC[C@@]4(CCCN4)C3)nc3ccccc32)nc1` [Example 136, 6-((2-((5S)-1,7-diazaspiro[4.5]decan-7-yl)-1H-benzimidazol-1-yl)methyl)-3-pyridinecarbonitrile], the pIC50 is 7.86. Then `COc1ccc2c(c1)nc(N1CCC(F)(F)[C@H](N)C1)n2Cc1ccc(C#N)cn1` [Example 137, 6-((2-((3R)-3-amino-4,4-difluoro-1-piperidinyl)-5-methoxy-1H-benzimidazol-1-yl)methyl)-3-pyridinecarbonitrile], with 7.44.

Regarding `COc1ccc2nc(N3CCC(F)(F)[C@H](N)C3)n(Cc3ccc(C#N)cn3)c2c1` [Example 138, 6-((2-((3R)-3-amino-4,4-difluoro-1-piperidinyl)-6-methoxy-1H-benzimidazol-1-yl)methyl)-3-pyridinecarbonitrile], the pIC50 was 9.28.

In the case of `CN[C@H]1CCCN(c2nc3ccc(C(F)(F)F)cc3n2Cc2ccc(C#N)cn2)C1` [Example 139, 6-((2-((3S)-3-(methylamino)-1-piperidinyl)-6-(trifluoromethyl)-1H-benzimidazol-1-yl)methyl)-3-pyridinecarbonitrile], the pIC50 is 8.72. Take `CN[C@H]1CCCN(c2nc3cc(C(F)(F)F)ccc3n2Cc2ccc(C#N)cn2)C1` [Example 140, 6-((2-((3S)-3-(methylamino)-1-piperidinyl)-5-(trifluoromethyl)-1H-benzimidazol-1-yl)methyl)-3-pyridinecarbonitrile]: the pIC50 is 6.88. Turning to `C[C@]1(N)CCCN(c2nc3ccccc3n2Cc2ccc(C#N)cn2)C1` [Example 141, 6-((2-((3S)-3-amino-3-methyl-1-piperidinyl)-1H-benzimidazol-1-yl)methyl)-3-pyridinecarbonitrile], the pIC50 was 7.87.

With `COc1ccc2nc(N3CCC[C@H](N)C3)n(Cc3ccc(C#N)cn3)c2c1` [Example 142, (S)-6-((2-(3-aminopiperidin-1-yl)-6-methoxy-1H-benzo[d]imidazol-1-yl)methyl)nicotinonitrile 2,2,2-trifluoroacetate], the pIC50 was 7.86. The result for `COc1ccc2c(c1)nc(N1CCC[C@H](N)C1)n2Cc1ccc(C#N)cn1` [Example 143, (S)-6-((2-(3-aminopiperidin-1-yl)-5-methoxy-1H-benzo[d]imidazol-1-yl)methyl)nicotinonitrile 2,2,2-trifluoroacetate] reads 8.16. The result for `N#Cc1ccc(Cn2c(N3CC[C@@H](F)[C@H](N)C3)nc3c(Cl)cc(F)cc32)nc1` [Example 144, 6-((2-((3R,4R)-3-amino-4-fluoropiperidin-1-yl)-4-chloro-6-fluoro-1H-benzo[d]imidazol-1-yl)methyl)nicotinonitrile 2,2,2-trifluoroacetate] reads 9.34. Consider `COc1ccc2c(c1)nc(N1CC[C@@H](F)[C@H](N)C1)n2Cc1ccc(C#N)cn1` [Example 145, 6-((2-((3R,4R)-3-amino-4-fluoropiperidin-1-yl)-5-methoxy-1H-benzo[d]imidazol-1-yl)methyl)nicotinonitrile hydrochloride], for which the pIC50 was 7.85. The result for `COc1ccc2nc(N3CC[C@@H](F)[C@H](N)C3)n(Cc3ccc(C#N)cn3)c2c1` [Example 146, 6-((2-((3R,4R)-3-amino-4-fluoropiperidin-1-yl)-6-methoxy-1H-benzo[d]imidazol-1-yl)methyl)nicotinonitrile hydrochloride] reads 9.20; that for `COc1ccc2nc(N3CC[C@H](F)[C@H](N)C3)n(Cc3ccc(C#N)cn3)c2c1` [Example 147, 6-((2-((3R,4S)-3-amino-4-fluoropiperidin-1-yl)-6-methoxy-1H-benzo[d]imidazol-1-yl)methyl)nicotinonitrile hydrochloride], 9.36; that for `COc1ccc2c(c1)nc(N1CC[C@H](F)[C@H](N)C1)n2Cc1ccc(C#N)cn1` [Example 148, 6-((2-((3R,4S)-3-amino-4-fluoropiperidin-1-yl)-5-methoxy-1H-benzo[d]imidazol-1-yl)methyl)nicotinonitrile hydrochloride], 7.93. As for `N#Cc1cc(F)cc2c1nc(N1CC[C@H](F)[C@H](N)C1)n2Cc1ncc(Cl)cn1` [Example 149, 2-((3R,4S)-3-amino-4-fluoropiperidin-1-yl)-1-((5-chloropyrimidin-2-yl)methyl)-6-fluoro-1H-benzo[d]imidazole-4-carbonitrile], the pIC50 was 8.96.

Regarding `N#Cc1cc(F)cc2nc(N3CCC(F)(F)[C@H](N)C3)n(Cc3ncc(Cl)cn3)c12` [Example 150, (R)-2-(3-amino-4,4-difluoropiperidin-1-yl)-1-((5-chloropyrimidin-2-yl)methyl)-5-fluoro-1H-benzo[d]imidazole-7-carbonitrile], the pIC50 is 8.04. Take `N#Cc1cc(F)cc2c1nc(N1CCC(F)(F)[C@H](N)C1)n2Cc1ncc(Cl)cn1` [Example 151, (R)-2-(3-amino-4,4-difluoropiperidin-1-yl)-1-((5-chloropyrimidin-2-yl)methyl)-6-fluoro-1H-benzo[d]imidazole-4-carbonitrile]: the pIC50 is 8.22. Then `N#Cc1ccc(Cn2c(N3CC[C@@H](O)[C@H](N)C3)nc3ccc(Cl)cc32)nc1` [Example 152, 6-((2-((3R,4R)-3-amino-4-hydroxypiperidin-1-yl)-6-chloro-1H-benzo[d]imidazol-1-yl)methyl)nicotinonitrile], with 7.17. The result for `N#Cc1ccc(Cn2c(N3CC[C@H](O)[C@H](N)C3)nc3ccc(Cl)cc32)nc1` [Example 153, 6-((2-((3R,4S)-3-amino-4-hydroxypiperidin-1-yl)-6-chloro-1H-benzo[d]imidazol-1-yl)methyl)nicotinonitrile] reads 7.14.

As to `N#Cc1ccc(Cn2c(N3CCC(F)(F)[C@H](N)C3)nc3ccccc32)cc1` [Example 154, (R)-4-((2-(3-amino-4,4-difluoropiperidin-1-yl)-1H-benzo[d]imidazol-1-yl)methyl)benzonitrile], the pIC50 was 8.51. Then `N#Cc1ccc(Cn2c(N3CC[C@@H](F)[C@H](N)C3)nc3cc(F)cc(F)c32)cc1` [Example 156], with 7.21; and `N#Cc1ccc(Cn2c(N3CC[C@@H](F)[C@H](N)C3)nc3c(F)cc(F)cc32)cc1` [Example 157, 4-((2-((3R,4R)-3-amino-4-fluoro-1-piperidinyl)-4,6-difluoro-1H-benzimidazol-1-yl)methyl)benzonitrile], with 9.30.
